Assay results as given in US7297797B2, “Pyrrolines” (Bayer CropScience AG, priority 2002, dated 2007).
Read-outs that look alike come from different tables or passages of the source.

Columns and labels:
[1] = log P determination by HPLC on reversed-phase column (EEC Directive 79/831 Annex V.A8); format: physicochemical
Experimental: The log P values given in the preparation examples and tables above are determined in accordance with EEC Directive 79/831 Annex V.A8 by HPLC (High Performance Liquid Chromatography) on a reversed-phase column (C 18). Temperature: 43° C. In the acidic range, determination is carried out at pH 2.3 using the mobile phases 0.1% aqueous phosphoric acid and acetonitrile; linear gradient from 10% acetonitrile to 90% acetonitrile (in the tables marked with a)). In the neutral range, determination is carried out at pH 7.5 using the mobile phases 0.01 molar aqueous phosphate buffer solution and acetonitrile; linear gradient from 10% acetonitrile to 90% acetonitrile (in the tables marked with b)). Calibration is carried out using unbranched alkan-2-ones (of 3 to 16 carbon atoms) with known lopP values (determination of the log P values by the retention times using linear interpolation between two successive alkanones).

[2] = tested on: caterpillars of the cotton bollworm (Heliothis armigera); assay: Heliothis armigera test; format: in vivo; conditions: Helicoverpa armigera, 168 h; 100 ppm active compound; soybean shoots (Glycine max) dipped; after 7 d; read-out: Kill rate in % after 7 d
Experimental: (§1) Heliothis armigera Test • Solvent: 7 parts by weight of dimethylformamide • Emulsifier: 2 parts by weight of alkylaryl polyglycol ether To produce a suitable preparation of active compound, 1 part by weight of active compound is mixed with the stated amounts of solvent and emulsifier, and the concentrate is diluted with emulsifier-containing water to the desired concentration. Soybean shoots (Glycine max) are treated by being dipped into the preparation of active compound of the desired concentration and are populated with caterpillars of the cotton bollworm (Heliothis armigera) while the leaves are still moist. After the desired period of time, the kill in % is determined. 100% means that all caterpillars have been killed; 0% means that none of the caterpillars have been killed. In this test, for example, the following compounds of the preparation examples show good activity: […]

[3] = tested on: larvae of the mustard beetle (Phaedon cochleariae); assay: Phaedon larvae test; format: in vivo; conditions: 168 h, 100 ppm active compound, cabbage leaves (Brassica oleracea) dipped, after 7 d, read-out: Kill rate in % after 7 d
Experimental: as §1, with “Phaedon Larvae Test” for “Heliothis armigera Test”, “concentration. Cabbage leaves (Brassica oleracea)” for “concentration. Soybean shoots (Glycine max)”, “with larvae” for “with caterpillars”, “the mustard beetle (Phaedon cochleariae)” for “the cotton bollworm (Heliothis armigera)”, “all beetle larvae” for “all caterpillars”, “the beetle larvae” for “the caterpillars”

[4] = tested on: caterpillars of the army worm (Spodoptera frugiperda); assay: Spodoptera frugiperda test; format: in vivo; conditions: 168 h, 100 ppm active compound, cabbage leaves (Brassica oleracea) dipped, after 7 d, read-out: Kill rate in % after 7 d
Experimental: as §1, with “Spodoptera frugiperda” for “Heliothis armigera”, “Cabbage leaves (Brassica oleracea)” for “Soybean shoots (Glycine max)”, “army worm (Spodoptera frugiperda)” for “cotton bollworm (Heliothis armigera)”

[5] = tested on: greenhouse red spider mite (Tetranychus urticae); assay: Tetranychus test (OP-resistant/dip treatment); format: in vivo; conditions: 168 h, 100 ppm active compound, infested bean plants (Phaseolus vulgaris) dipped, OP-resistant, after 7 d, read-out: Kill rate in % after 7 d
Experimental: Tetranychus Test (OP-Resistant/Dip Treatment)
• Solvent: 7 parts by weight of dimethylformamide • Emulsifier: 2 parts by weight of alkylaryl polyglycol ether
To produce a suitable preparation of active compound, 1 part by weight of active compound is mixed with the stated amounts of solvent and emulsifier, and the concentrate is diluted with emulsifier-containing water to the desired concentration.
Bean plants (Phaseolus vulgaris) which are heavily infested by all stages of the greenhouse red spider mite (Tetranychus urticae) are treated by being dipped into a preparation of active compound of the desired concentration.
After the desired period of time, the activity in % is determined. 100% means that all spider mites have been killed; 0% means that none of the spider mites have been killed.
In this test, for example, the following compounds of the preparation examples show good efficacy: […]

[6] = tested on: caterpillars of the diamondback moth (Plutella xylostella); assay: Plutella test; format: in vivo; conditions: 100 ppm active compound, cabbage leaves (Brassica oleracea) dipped
Experimental: as §1, with “Plutella” for “Heliothis armigera”, “Cabbage leaves (Brassica oleracea)” for “Soybean shoots (Glycine max)”, “diamondback moth (Plutella xylostella)” for “cotton bollworm (Heliothis armigera)”

[7] = tested on: caterpillars of the army worm (Spodoptera exigua); assay: Spodoptera exigua test; format: in vivo; conditions: 100 ppm active compound, cabbage leaves (Brassica oleracea) dipped
Experimental: as §1, with “Spodoptera exigua” for “Heliothis armigera”, “Cabbage leaves (Brassica oleracea)” for “Soybean shoots (Glycine max)”, “army worm (Spodoptera exigua)” for “cotton bollworm (Heliothis armigera)”

[8] = reversed-phase C18 HPLC column; acidic range, pH 2.3, 0.1% aqueous phosphoric acid/acetonitrile, 43° C.; marked a) in tables, read-out: log P (pH 2.3)
[9] = reversed-phase C18 HPLC column; neutral range, pH 7.5, 0.01 molar aqueous phosphate buffer/acetonitrile, 43° C.; marked b) in tables, read-out: log P (pH 7.5)

SMILES	chromatographic logP [1, 8]	chromatographic logP [1, 9]	pest or weed control at 100 ppm [2] [%]	pest or weed control at 100 ppm [3] [%]	pest or weed control at 100 ppm [4] [%]	pest or weed control at 100 ppm [5] [%]	Kill rate in % after 7 d [6] [%]	Kill rate in after 7 d [7] [%]
O=C(/C=C/c1ccc(Br)cc1F)c1c(F)cccc1F [(2E)-3-(4-bromo-2-fluorophenyl)-1-(2,6-difluoro-phenyl)-2-propen-1-one]	4.18	–	–	–	–	–	–	–
CC(C)Oc1ccc(-c2ccc(-c3ccc(C4CCC(c5c(F)cccc5F)=N4)cc3)cc2)s1 (centres unmarked) [Example 3, 5-(2,6-difluorophenyl)-2-[4′-(5-isopropoxy-2-thienyl)-1,1′-biphenyl-4-yl]-3,4-dihydro-2H-pyrrole]	5.2	–	100	100	100	–	–	–
CC(=O)NC(CCC(=O)c1ccccc1C)c1ccc(Br)cc1 (centres unmarked) [N-[1-(4-bromophenyl)-4-(2-methylphenyl)-4-oxobutyl]acetamnide]	3.33	–	–	–	–	–	–	–
Cc1ccccc1C1=NC(c2ccc(Br)cc2)CC1 (centres unmarked) [2-(4-bromophenyl)-5-(2-methylphenyl)-3,4-dihydro-2H-pyrrole]	1.82	4.48	–	–	–	–	–	–
CC(=O)NC(CCC(=O)c1c(F)cccc1F)c1ccc(Br)cc1F (centres unmarked) [N-[1-(4-bromo-2-fluorophenyl)-4-(2,6-difluorophenyl)-4-oxobutyl]acetamide]	2.74	–	–	–	–	–	–	–
Fc1cc(-c2ccc(-c3noc(C(F)(F)F)n3)cc2)ccc1C1CCC(c2c(F)cccc2F)=N1 (centres unmarked) [Example 7]	5.43	5.72	100	100	100	98	100	100
COc1ccc(-c2ccc(-c3ccc(C4CCC(c5c(F)cccc5F)=N4)cc3)cc2)s1 (centres unmarked) [Example 2, 5-(2,6-difluorophenyl)-2-[4′-(5-methoxy-2-thienyl)-1,1′-biphenyl-4-yl]-3,4-dihydro-2H-pyrrole]	4.35	–	100	100	100	–	–	–
N#Cc1cnn(-c2ccc(-c3ccc(C4CCC(c5c(F)cccc5F)=N4)cc3)cc2)c1 (centres unmarked) [Example 18]	3.02	4.03	–	100	100	90	–	–
Cc1ccccc1C1=NC(c2ccc(B3OC(C)(C)C(C)(C)O3)cc2)CC1 (centres unmarked) [II-1, 5-(2-methylphenyl)-2-[4-(4,4,5,5-tetramethyl-1,3,2-dioxaborolan-2-yl)phenyl]-3,4-dihydro-2H-pyrrole]	2.25	4.98	–	–	–	–	–	–
O=C(c1c(F)cccc1F)C1CC1c1ccc(Br)cc1F (centres unmarked) [[2-(4-bromo-2-fluorophenyl)cyclopropyl](2,6-difluorophenyl)methanone]	4.31	–	–	–	–	–	–	–
CC1(C)OB(c2ccc(C3CCC(c4c(F)cccc4F)=N3)c(F)c2)OC1(C)C (centres unmarked) [II-2, 5-(2,6-difluorophenyl)-2-[2-fluoro-4-(4,4,5,5-tetramethyl-1,3,2-dioxaborolan-2-yl)phenyl]-3,4-dihydro-2H-pyrrole]	4.88	–	–	–	–	–	–	–
Cc1ccccc1C1=NC(c2ccc(-c3ccc(-c4noc(C(F)(F)F)n4)cc3)cc2)CC1 (centres unmarked) [Example 4, 3-{4′-[5-(2-methylphenyl)-3,4-dihydro-2H-pyrrol-2-yl]-1,1′-biphenyl-4-yl}-5-(trifluoromethyl)-1,2,4-oxadiazole]	3.32	–	100	100	100	95	–	–

The next lines start with results.

chromatographic logP [1, 8]	chromatographic logP [1, 9]	SMILES	pest or weed control at 100 ppm [2] [%]	pest or weed control at 100 ppm [3] [%]	pest or weed control at 100 ppm [4] [%]	pest or weed control at 100 ppm [5] [%]	Kill rate in % after 7 d [6] [%]	Kill rate in after 7 d [7] [%]
3.99	–	Cc1ccccc1C1=NC(c2ccc(-c3ccc(-c4noc(C(C)(C)C)n4)cc3)cc2)CC1 (centres unmarked) [Example 11]	100	100	100	98	–	–
4.18	–	Cc1ccccc1C1=NC(c2ccc(-c3ccc(-c4nc(C(C)(C)C)no4)cc3)cc2)CC1 (centres unmarked) [Example 12]	100	100	100	98	–	–
3.35	4.68	Cc1nc(-c2ccc(-c3ccc(C4CCC(c5c(F)cccc5F)=N4)cc3)cc2)cs1 (centres unmarked) [Example 22]	100	–	100	90	100	–
5.18	–	CCOC(=O)[C@H]1CC(c2c(F)cccc2F)=N[C@H]1c1ccc(-c2ccc(-c3noc(C(F)(F)F)n3)cc2)cc1 (racemic) [Example 8]	100	100	100	95	–	–
5.39	–	CCOC(=O)[C@H]1CC(c2c(F)cccc2F)=N[C@H]1c1ccc(-c2ccc(-c3nc(C(C)(C)C)no3)cc2)cc1 (racemic) [Example 10]	100	100	100	–	–	–
5.29	–	CCOC(=O)[C@H]1CC(c2c(F)cccc2F)=N[C@H]1c1ccc(-c2ccc(-c3noc(C(C)(C)C)n3)cc2)cc1 (racemic) [Example 9]	100	100	100	–	–	–
4.88	5.84	CCOc1ccc(-c2ccc(-c3ccc(C4CCC(c5c(F)cccc5F)=N4)cc3)cc2)s1 (centres unmarked) [Example 1, 5-(2,6-difluorophenyl)-2-[4′-(5-ethoxy-2-thienyl)-1,1′-biphenyl-4-yl]-3,4-dihydro-2H-pyrrole]	100	100	100	95	100	–
